Data set [1] has as its system Rattus norvegicus. Briefly: Total plasma concentration in Sprague-Dawley rat at 3 mg/kg, po. The class given is ADME, organism-based. Details: dose 3 mg/kg, route oral. To be noted: in vivo.
Data set [2] has as its system Rattus norvegicus. Briefly: Total plasma concentration in Sprague-Dawley rat at 10 mg/kg, po. The class given is ADME, organism-based. More on the design: dose 10 mg/kg, route oral. To be noted: in vivo.
Data set [3] in a line: Aqueous solubility at pH 6.5. It counts as physicochemical.
Data set [4] is described as follows: AUC in Sprague-Dawley rat at 10 mg/kg, po dosed as aqueous solution of oleoyl macrogolglyceride/DMAC/polysorbate 80, 85:10:5 within 0.25 to 24 hrs. To be noted: plasma. The class given is ADME, organism-based. Details: time 0.25-24 hr, dose 10 mg/kg, route oral.
Data set [5] relates to Rattus norvegicus. Briefly: Ex vivo receptor occupancy of CRF1 receptor in Sprague-Dawley rat brain at 1 mg/kg, po after 20 mins by autoradiography relative to [125I-tyrosine]sauvagine. The class given is functional.
Data set [6] in a line: Half life in Sprague-Dawley rat 2 mg/kg, iv within 0.17 to 24 hrs. More on the design: dose 2 mg/kg, route intravenous. The class given is ADME, organism-based. To be noted: in vivo.
Data set [7] deals with Rattus norvegicus. Put plainly: Plasma free concentration in Sprague-Dawley rat at 1 mg/kg, po. It counts as ADME, organism-based. Details: dose 1 mg/kg, route oral. To be noted: in vivo.
In data set [8] the test system is Rattus norvegicus. Put plainly: Anxiolytic activity in Sprague-Dawley rat at 10 mg/kg, po assessed as decrease in exit latency after 60 mins by defensive withdrawal test relative to control. The class given is functional. More on the design: scale not given: the % may be the effect or the level left.
Data set [9] deals with T1, Corticotropin-releasing factor receptor 1 (Rattus norvegicus, UniProt P35353).
T1 sequence (P35353 whole entry): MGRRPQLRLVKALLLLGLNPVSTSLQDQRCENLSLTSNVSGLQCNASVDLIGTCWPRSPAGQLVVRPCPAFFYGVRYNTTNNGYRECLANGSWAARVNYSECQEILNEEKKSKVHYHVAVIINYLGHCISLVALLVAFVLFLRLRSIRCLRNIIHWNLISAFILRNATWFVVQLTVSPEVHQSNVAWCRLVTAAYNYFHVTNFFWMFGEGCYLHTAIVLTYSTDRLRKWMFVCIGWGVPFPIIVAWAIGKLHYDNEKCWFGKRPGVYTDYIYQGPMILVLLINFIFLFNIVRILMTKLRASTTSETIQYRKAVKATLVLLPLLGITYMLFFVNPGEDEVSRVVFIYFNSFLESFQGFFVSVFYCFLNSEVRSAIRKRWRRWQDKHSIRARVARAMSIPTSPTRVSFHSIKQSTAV
Put plainly: Displacement of [125I]ovine-CRF from CRF1 receptor in rat frontal cortex by rapid filtration technique. It counts as tissue-based. (Displacement assays read how much labelled ligand stays bound in the presence of the test substance.)

Data set [10] concerns Rattus norvegicus. Put plainly: Oral bioavailability in Sprague-Dawley rat at 10 mg/kg dosed as aqueous solution of oleoyl macrogolglyceride/DMAC/polysorbate 80, 85:10:5 within 0.25 to 24 hrs. It counts as ADME, organism-based. To be noted: in vivo.
Data set [11] can be described thus: AUC in Sprague-Dawley rat at 10 mg/kg, po dosed as aqueous suspension of 1% polysorbate 80 in 0.5% methylcellulose within 0.25 to 24 hrs. To be noted: in vivo. Details: time 0.25-24 hr, dose 10 mg/kg, route oral. It counts as ADME, organism-based.
The subject of data set [12] is Rattus norvegicus. Briefly: Anxiolytic activity in Sprague-Dawley rat at 1 mg/kg, po assessed as decrease in exit latency after 60 mins by defensive withdrawal test relative to control. The class given is functional. More on the design: scale not given: the % may be the effect or the level left.
The subject of data set [13] is Rattus norvegicus. Briefly: Total plasma concentration in Sprague-Dawley rat at 1 mg/kg, po. It counts as ADME, organism-based. More on the design: dose 1 mg/kg, route oral. To be noted: in vivo.
Data set [14] relates to Rattus norvegicus. Put plainly: Plasma free concentration in Sprague-Dawley rat at 3 mg/kg, po. It counts as ADME, organism-based. More on the design: dose 3 mg/kg, route oral. To be noted: in vivo.
Data set [15] in a line: Cmax in Sprague-Dawley rat at 10 mg/kg, po dosed as aqueous suspension of 1% polysorbate 80 in 0.5% methylcellulose within 0.25 to 24 hrs. It counts as ADME, organism-based. Details: dose 10 mg/kg, route oral. To be noted: in vivo.
For data set [16], the target named is Corticotropin releasing hormone receptor 2 (Sus scrofa, UniProt B8Q4Z9). Put plainly: Displacement of [125I]sauvagine from CRF2 receptor in pig choroid plexus by rapid filtration technique. It counts as tissue-based.
The subject of data set [17] is Rattus norvegicus. Briefly: Cmax in Sprague-Dawley rat at 10 mg/kg, po dosed as aqueous solution of oleoyl macrogolglyceride/DMAC/polysorbate 80, 85:10:5 within 0.25 to 24 hrs. It counts as ADME, organism-based. Details: dose 10 mg/kg, route oral. To be noted: in vivo.
The test system of data set [18] is Rattus norvegicus. Briefly: Ex vivo receptor occupancy of CRF1 receptor in Sprague-Dawley rat brain at 10 mg/kg, po after 20 mins by autoradiography relative to [125I-tyrosine]sauvagine. It counts as functional.
The nature of data set [19]: Oral bioavailability in Sprague-Dawley rat at 10 mg/kg dosed as aqueous suspension of 1% polysorbate 80 in 0.5% methylcellulose within 0.25 to 24 hrs. It counts as ADME, organism-based. To be noted: in vivo.
Data set [20] relates to Rattus norvegicus. Briefly: Plasma free concentration in Sprague-Dawley rat at 10 mg/kg, po. It counts as ADME, organism-based. More on the design: dose 10 mg/kg, route oral. To be noted: in vivo.
A short description of data set [21]: Intrinsic clearance in human liver microsomes at 1 uM. It counts as ADME, Microsome.
Data set [22] deals with Rattus norvegicus. Briefly: Ex vivo receptor occupancy of CRF1 receptor in Sprague-Dawley rat brain at 3 mg/kg, po after 20 mins by autoradiography relative to [125I-tyrosine]sauvagine. The class given is functional.
A short description of data set [23]: Clearance in Sprague-Dawley rat 2 mg/kg, iv within 0.17 to 24 hrs. More on the design: dose 2 mg/kg, route intravenous. It counts as ADME, organism-based. To be noted: in vivo.
Data set [24] can be described thus: Aqueous solubility at pH 1. The class given is physicochemical.
A short description of data set [25]: Fraction unbound in Sprague-Dawley rat plasma at 10 mg/kg, po after 3 hrs by equilibrium dialysis. Details: dose 10 mg/kg, route oral. The class given is ADME, organism-based.
For data set [26], the system named is Rattus norvegicus. Briefly: Ex vivo receptor occupancy of CRF1 receptor in po dosed Sprague-Dawley rat brain after 20 mins by autoradiography. It counts as functional, organism-based.
Data set [27] is described as follows: Volume of distribution at steady state in Sprague-Dawley rat 2 mg/kg, iv within 0.17 to 24 hrs. It counts as ADME, organism-based. Details: dose 2 mg/kg, route intravenous. To be noted: in vivo, read-out: Vdss.
For data set [28], the system named is Rattus norvegicus. Briefly: Anxiolytic activity in Sprague-Dawley rat at 3 mg/kg, po assessed as decrease in exit latency after 60 mins by defensive withdrawal test relative to control. Details: scale not given: the % may be the effect or the level left. It counts as functional.
For data set [29], the target named is T2, Corticotropin-releasing factor receptor 1 (Homo sapiens, UniProt P34998).
T2 sequence (P34998 whole entry): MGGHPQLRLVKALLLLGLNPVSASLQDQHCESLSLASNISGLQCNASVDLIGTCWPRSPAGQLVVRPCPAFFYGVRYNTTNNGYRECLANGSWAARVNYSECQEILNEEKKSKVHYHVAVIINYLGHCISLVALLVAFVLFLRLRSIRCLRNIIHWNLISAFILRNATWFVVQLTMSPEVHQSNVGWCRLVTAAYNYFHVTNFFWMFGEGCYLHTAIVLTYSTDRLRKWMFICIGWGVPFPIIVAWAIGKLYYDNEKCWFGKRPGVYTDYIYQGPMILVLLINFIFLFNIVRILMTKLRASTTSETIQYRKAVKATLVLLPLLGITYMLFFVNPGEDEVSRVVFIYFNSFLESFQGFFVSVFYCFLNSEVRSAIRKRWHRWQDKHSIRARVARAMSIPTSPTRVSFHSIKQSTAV
Briefly: Antagonist activity at CRF1 receptor in human Y-79 cells assessed as inhibition of CRF-induced cAMP production after 30 mins by HTRF analysis. In general terms: cAMP levels reflect the balance of adenylyl cyclase and phosphodiesterase activity.

Sequence of Corticotropin releasing hormone receptor 2 (B8Q4Z9 whole entry): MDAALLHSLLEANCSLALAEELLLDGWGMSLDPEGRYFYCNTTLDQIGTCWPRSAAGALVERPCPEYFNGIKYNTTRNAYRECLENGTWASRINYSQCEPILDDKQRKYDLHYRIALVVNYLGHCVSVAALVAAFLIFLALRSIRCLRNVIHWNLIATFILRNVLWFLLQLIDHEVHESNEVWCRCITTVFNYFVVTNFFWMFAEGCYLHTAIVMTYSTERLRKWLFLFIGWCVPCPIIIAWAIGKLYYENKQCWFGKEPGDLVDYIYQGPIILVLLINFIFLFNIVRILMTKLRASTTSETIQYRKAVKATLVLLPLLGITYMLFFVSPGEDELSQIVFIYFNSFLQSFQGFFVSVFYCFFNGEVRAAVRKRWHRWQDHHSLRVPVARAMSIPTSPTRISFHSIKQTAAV

As for `C[C@@H](C1CC1)n1cc(Cl)nc(Nc2c(Cl)cc(OC(F)F)cc2Cl)c1=O`, the concentration in the data set on Rattus norvegicus [1] worked out at 270 nM; in the data set on Rattus norvegicus [2] it was 790 nM; with Rattus norvegicus [13], 80 nM. Also, the solubility in data set [3] and in data set [24] was less than 1 µg/mL in each case. The AUC stood at 12 µM·h in data set [4] and 1.3 µM·h in data set [11]. In addition, the Activity was 43% in the data set on Rattus norvegicus [5]; 61% in the data set on Rattus norvegicus [8]; 8% in the data set on Rattus norvegicus [12]; 83% in the data set with Rattus norvegicus [18]; 73% in the data set with Rattus norvegicus [22]; “Dose-dependent effect” in the data set on Rattus norvegicus [26]. The Activity in the data set with Rattus norvegicus [28] stood at 46%. In [6], this compound had a half-life of 7.8 h. Further, the “Cp(f)” value with Rattus norvegicus [7] amounted to 0.62 nM; in the data set on Rattus norvegicus [14], 2.1 nM; in the data set on Rattus norvegicus [20], 6.1 nM. In addition, the IC50 in data set [9] is 1 nM; in data set [16], more than 10000 nM; in data set [29], 4.9 nM. The F in the data set on Rattus norvegicus [10] was 52%. For the same compound, the Cmax in data set [15] was found to be 100 nM; in the data set with Rattus norvegicus [17], 1700 nM. This compound gave a bioavailability in data set [19] of 5%. Also, in data set [21], the intrinsic clearance (CLint scaled) at 1 µM was determined as 62 mL/min/kg. In addition, the clearance in [23] was 17 mL/min/kg. Further, in data set [25], the fraction unbound at 3 h is 0.0077. For the same compound, the Vd in data set [27] turned out to be 4.7 L/kg.

In data set [16], `CC[C@H](C)[C@H](NC(=O)[C@@H](NC(=O)[C@H](CC(=O)O)NC(=O)[C@H](CC(C)C)NC(=O)[C@H](CC(C)C)NC(=O)[C@H](CC(C)C)NC(=O)[C@H](CCCNC(=N)N)NC(=O)[C@H](CC(N)=O)NC(=O)[C@H](CC(N)=O)NC(=O)[C@H](C)NC(=O)[C@H](C)NC(=O)[C@H](CCC(N)=O)NC(=O)[C@H](CCC(N)=O)NC(=O)[C@H](CCCCN)NC(=O)[C@H](CCC(=O)O)NC(=O)[C@H](CCCCN)NC(=O)[C@H](CCC(=O)O)NC(=O)[C@H](CCC(N)=O)NC(=O)[C@H](CCCCN)NC(=O)[C@H](CCC(=O)O)NC(=O)[C@@H](NC(=O)[C@H](CCC(=O)O)NC(=O)[C@@H](NC(=O)[C@H](CCSC)NC(=O)[C@H](CCCCN)NC(=O)[C@H](CCCNC(=N)N)NC(=O)[C@H](CC(C)C)NC(=O)[C@H](CC(C)C)NC(=O)[C@H](CCC(=O)O)NC(=O)[C@H](CC(C)C)NC(=O)[C@H](CO)NC(=O)[C@H](CC(C)C)NC(=O)[C@H](CC(=O)O)NC(=O)[C@@H](NC(=O)[C@H](CO)NC(=O)[C@@H](NC(=O)[C@@H]1CCCN1C(=O)[C@@H]1CCCN1C(=O)CNC(=O)[C@@H]1CCC(=O)N1)[C@@H](C)CC)[C@@H](C)CC)[C@@H](C)CC)[C@@H](C)CC)[C@@H](C)O)C(N)=O` [SAUVAGINE] showed an IC50 of 0.58 nM.

As usually defined, the solubility is the concentration that dissolves in the medium under given conditions. As a reminder, the AUC is concentration integrated over time. What is called half-life is the time in which the quantity being followed falls by half. One may read the IC50 as the concentration that inhibits the measured activity by half. The term Cmax denotes the highest concentration seen after dosing. The bioavailability is dose-corrected exposure relative to a reference, in per cent. By CLint scaled is commonly meant the capacity of the preparation to metabolise the compound, expressed as a volume cleared per time. For orientation: clearance means the volume of plasma or blood freed of the substance per unit of time. Usually fraction unbound stands for free concentration divided by total concentration.

Values taken from ChEMBL document CHEMBL1158467, “In vitro intrinsic clearance-based optimization of N3-phenylpyrazinones as corticotropin-releasing factor-1 (CRF1) receptor antagonists” (J Med Chem, 2009).
